Measurements as given in patent publication US20120184517A1, “TREATMENT OF DISEASES WITH ALTERED SMOOTH MUSCLE CONTRACTILITY” (priority 2009, published 2012).

Tests used:
[1] = tested on: WT tracheal rings; assay: Isoproterenol-induced relaxation of WT tracheal rings on a myograph; type: cell-based, murine; settings: pre-incubation with β2-AR antagonist 100 nM
Protocol: (n=4 each). Asterisk (*) indicates P<0.05 versus vehicle (DMSO). […] Cumulative dose-response curves of WT tracheal rings to isoproterenol in the absence and presence of 100 nM iberiotoxin (IbTX), a specific BK channel inhibitor. Values in graphs are means±standard deviation.
In this experiment, murine tracheal smooth muscle cells were acutely isolated and whole cell patch clamped as previously described (Zakharov, S. et al., (2005) J Biol Chem 280, 30882-30887).
To dissect which (or both) β-AR pathways are responsible for the effects, tracheal rings were pre-incubated with either β1-AR antagonist (CGP 20712A; 100 nM) or a β2-AR antagonist (ICI 118551; 100 nM) or vehicle (DMSO). […] To confirm that the isoproterenol-induced relaxation was dependent upon BK channel-induced hyperpolarization, IbTX, a specific inhibitor of the BK channel, was used.

[2] = tested on: porcine coronary myocytes; settings: 30 μM; cited from earlier work
[3] = tested on: 2K-1C hypertensive rats; settings: hypertensive rat model compared to controls; cited from earlier work
[4] = molecular target: T1, BKCa channel (mSlo) (Mus musculus, UniProt Q08460); assay: Whole cell patch clamp of HEK293 cells stably transfected with mSlo; type: cell-based, murine
T1 construct: expressed in transfected cells
Protocol: FIGS. 4A and 4B show representative current traces from whole cell patches with 5 mM EGTA in patch pipette. […] Voltage steps are shown at the right of each tracing; note the different maximum voltage steps +200 mV (upper) vs. +120 mV (lower). […] FIG. 4C G-V curves were constructed for indicated conditions utilizing tail analysis (Xia, et al., Multiple regulatory sites in large-conductance calcium-activated potassium channels. Nature, 2002. 418(6900):880-4). Solid lines were fitted with Boltzmann function. […] FIGS. 4D and 4E show experiments studying stable mslo HEK293 cells in whole cell configuration with a pipette solution containing 5 mM EGTA (˜0 free Ca^2+).
Current in the diary plot in FIG. 5B represents maximal current in ramp protocol at +70 mV. Holding potential of ramp was −20 mV, with ramp from −30 mV to +180 mV over 500 ms. The G-V curve in FIG. 5C was generated from the tail analysis as described in FIG. 4.
(§1) Current was monitored with a ramp protocol; holding potential −60 mV, with ramp from −80 mV to +150 mV over 500 ms. […] Analysis was performed using tail analysis with normalization as previously described (Xia, et al., Multiple regulatory sites in large-conductance calcium-activated potassium channels. Nature, 2002. 418(6900):880-4). […] Identification of the BKCa channel was determined by conductance and inhibition by iberiotoxin and TEA. […] Murine femoral arterial rings were isolated and placed in a wire myograph. […] The figures shown are representative of 4 similar experiments. Error bars are standard error of the mean (SEM). Asterisk (*) indicates p<0.001.

[5] = tested on: dilation to forskolin; settings: cited from earlier work
[6] = molecular target: T2, BKCa channel (Homo sapiens, UniProt Q12791); settings: cytoplasmic side; cited from earlier work
[7] = not told; cited from earlier work
[8] = tested on: tracheal rings; assay: Isoproterenol-induced relaxation of tracheal rings from PBS- and OVA-sensitized animals; type: cell-based, murine; settings: no rottlerin
Protocol: The isoproterenol-induced relaxation of tracheal rings from OVA-sensitized asthmatic animals was also tested. After induction of asthma, tracheal rings were removed and mounted on the myograph. […] At the conclusion of the experiment, each tracheal ring was exposed to methacholine to ensure viability of the ring and equivalent constriction.
After induction of asthma, tracheal rings were removed and mounted on the myograph. […] The ISO-relaxation curve was shifted downward and to the right, with the maximal relaxation response reduced to only ˜25% from more than 60%.

[9] = molecular target: T3, BK currents in tracheal ASM cells (Mus musculus, UniProt Q08460); assay: Perforated whole cell voltage clamp of acutely isolated tracheal ASM, outward K+ current; type: cell-based; settings: 0.5 μM ISO
T3 construct: The effect of ISO on BK currents in acutely isolated tracheal ASM was also determined; endogenous in cells; host or cells: acutely isolated tracheal airway smooth muscle cells
Protocol: FIG. 23A is a diary plot of current recorded during repetitive stimulation by depolarizing ramps every 5 seconds to +200 mV from a holding potential of −20 mV. ISO and ISO+IbTX exposure are indicated by bars at bottom of plot. Dashed line indicates average control current.
The effect of ISO on BK currents in acutely isolated tracheal ASM was also determined. ASM cells were studied using perforated whole cell voltage clamp. After obtaining access, outward K^+ current was monitored using a 0.5 second ramp, from a holding potential of −20 mV to +200 mV. […] Under the conditions used, the majority of the outward K^+ current is conducted by the BK channel, as shown by IbTX-blockade (FIGS. 23A and 23B).

[10] = molecular target: T2, BKCa channel; settings: cited from earlier work
[11] = molecular target: maxi-K potassium channels (Homo sapiens, UniProt Q12791); settings: 50 nM intracellular Ca2+; cited from earlier work
[12] = tested on: rat stroke models; settings: in vivo; cited from earlier work
[13] = molecular target: T4, BKCa channel in porcine coronary artery cells (Sus scrofa, UniProt O18866); settings: cited from earlier work
T4 construct: host or cells: porcine coronary artery cells

[14] = tested on: murine femoral arterial rings; type: cell-based
Protocol: as §1

T2 sequence (Q12791 whole entry): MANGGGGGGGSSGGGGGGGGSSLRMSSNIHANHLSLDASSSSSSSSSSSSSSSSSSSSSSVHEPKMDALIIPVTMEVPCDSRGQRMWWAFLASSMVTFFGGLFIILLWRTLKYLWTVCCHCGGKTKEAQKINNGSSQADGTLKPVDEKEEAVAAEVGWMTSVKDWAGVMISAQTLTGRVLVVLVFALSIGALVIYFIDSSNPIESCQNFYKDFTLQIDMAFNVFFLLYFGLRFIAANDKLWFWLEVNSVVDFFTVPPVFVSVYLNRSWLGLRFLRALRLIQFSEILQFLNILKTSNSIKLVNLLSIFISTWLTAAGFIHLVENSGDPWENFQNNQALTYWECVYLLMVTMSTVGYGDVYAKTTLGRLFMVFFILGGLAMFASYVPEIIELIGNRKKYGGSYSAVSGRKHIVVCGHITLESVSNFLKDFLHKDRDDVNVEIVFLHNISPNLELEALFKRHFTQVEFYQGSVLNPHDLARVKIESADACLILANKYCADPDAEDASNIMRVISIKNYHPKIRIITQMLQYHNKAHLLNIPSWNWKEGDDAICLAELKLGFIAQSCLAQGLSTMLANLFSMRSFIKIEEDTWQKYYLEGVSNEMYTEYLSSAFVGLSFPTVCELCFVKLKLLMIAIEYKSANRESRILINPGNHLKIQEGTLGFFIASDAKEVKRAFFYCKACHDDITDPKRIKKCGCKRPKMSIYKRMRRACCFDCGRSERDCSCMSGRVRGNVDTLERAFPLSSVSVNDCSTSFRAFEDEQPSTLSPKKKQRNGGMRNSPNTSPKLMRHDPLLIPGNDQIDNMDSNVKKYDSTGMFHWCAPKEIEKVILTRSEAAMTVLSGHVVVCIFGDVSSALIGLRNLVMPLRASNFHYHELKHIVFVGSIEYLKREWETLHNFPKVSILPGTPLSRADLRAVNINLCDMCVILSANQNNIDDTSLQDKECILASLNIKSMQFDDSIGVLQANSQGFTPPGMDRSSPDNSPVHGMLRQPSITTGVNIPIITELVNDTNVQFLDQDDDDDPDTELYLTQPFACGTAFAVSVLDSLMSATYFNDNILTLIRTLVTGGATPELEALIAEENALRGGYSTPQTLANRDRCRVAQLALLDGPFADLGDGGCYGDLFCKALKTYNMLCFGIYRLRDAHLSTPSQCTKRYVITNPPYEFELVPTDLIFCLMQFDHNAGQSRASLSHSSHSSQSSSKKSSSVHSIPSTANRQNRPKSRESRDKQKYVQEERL
T4 sequence (O18866 whole entry): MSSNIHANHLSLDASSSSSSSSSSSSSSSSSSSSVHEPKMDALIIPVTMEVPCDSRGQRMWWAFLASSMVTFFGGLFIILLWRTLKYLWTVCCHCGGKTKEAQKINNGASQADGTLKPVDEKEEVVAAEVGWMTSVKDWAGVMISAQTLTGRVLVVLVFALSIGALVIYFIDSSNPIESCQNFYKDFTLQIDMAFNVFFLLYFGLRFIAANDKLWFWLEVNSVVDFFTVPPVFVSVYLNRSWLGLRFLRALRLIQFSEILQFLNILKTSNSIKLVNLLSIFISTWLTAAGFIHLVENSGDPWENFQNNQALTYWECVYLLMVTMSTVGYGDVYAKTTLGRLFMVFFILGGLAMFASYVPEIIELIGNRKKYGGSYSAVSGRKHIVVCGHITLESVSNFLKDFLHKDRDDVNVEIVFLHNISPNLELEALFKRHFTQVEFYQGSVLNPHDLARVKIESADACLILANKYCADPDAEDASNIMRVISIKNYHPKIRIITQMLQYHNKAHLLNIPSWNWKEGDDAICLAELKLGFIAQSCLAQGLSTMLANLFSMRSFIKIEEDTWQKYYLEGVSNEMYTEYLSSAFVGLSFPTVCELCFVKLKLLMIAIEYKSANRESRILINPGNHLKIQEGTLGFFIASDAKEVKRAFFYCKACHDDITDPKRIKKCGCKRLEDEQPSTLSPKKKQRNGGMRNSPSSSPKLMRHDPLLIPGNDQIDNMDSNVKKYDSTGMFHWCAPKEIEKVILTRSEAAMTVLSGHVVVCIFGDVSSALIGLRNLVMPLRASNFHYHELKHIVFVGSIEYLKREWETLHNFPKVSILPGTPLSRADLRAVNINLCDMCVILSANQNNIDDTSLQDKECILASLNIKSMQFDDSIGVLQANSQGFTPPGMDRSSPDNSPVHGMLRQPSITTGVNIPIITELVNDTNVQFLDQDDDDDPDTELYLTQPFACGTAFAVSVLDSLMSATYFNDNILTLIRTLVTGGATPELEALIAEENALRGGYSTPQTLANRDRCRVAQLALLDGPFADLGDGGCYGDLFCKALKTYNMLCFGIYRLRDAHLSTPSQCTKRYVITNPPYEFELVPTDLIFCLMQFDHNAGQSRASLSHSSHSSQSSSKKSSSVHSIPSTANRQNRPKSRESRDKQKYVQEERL
T1 sequence (Q08460 whole entry): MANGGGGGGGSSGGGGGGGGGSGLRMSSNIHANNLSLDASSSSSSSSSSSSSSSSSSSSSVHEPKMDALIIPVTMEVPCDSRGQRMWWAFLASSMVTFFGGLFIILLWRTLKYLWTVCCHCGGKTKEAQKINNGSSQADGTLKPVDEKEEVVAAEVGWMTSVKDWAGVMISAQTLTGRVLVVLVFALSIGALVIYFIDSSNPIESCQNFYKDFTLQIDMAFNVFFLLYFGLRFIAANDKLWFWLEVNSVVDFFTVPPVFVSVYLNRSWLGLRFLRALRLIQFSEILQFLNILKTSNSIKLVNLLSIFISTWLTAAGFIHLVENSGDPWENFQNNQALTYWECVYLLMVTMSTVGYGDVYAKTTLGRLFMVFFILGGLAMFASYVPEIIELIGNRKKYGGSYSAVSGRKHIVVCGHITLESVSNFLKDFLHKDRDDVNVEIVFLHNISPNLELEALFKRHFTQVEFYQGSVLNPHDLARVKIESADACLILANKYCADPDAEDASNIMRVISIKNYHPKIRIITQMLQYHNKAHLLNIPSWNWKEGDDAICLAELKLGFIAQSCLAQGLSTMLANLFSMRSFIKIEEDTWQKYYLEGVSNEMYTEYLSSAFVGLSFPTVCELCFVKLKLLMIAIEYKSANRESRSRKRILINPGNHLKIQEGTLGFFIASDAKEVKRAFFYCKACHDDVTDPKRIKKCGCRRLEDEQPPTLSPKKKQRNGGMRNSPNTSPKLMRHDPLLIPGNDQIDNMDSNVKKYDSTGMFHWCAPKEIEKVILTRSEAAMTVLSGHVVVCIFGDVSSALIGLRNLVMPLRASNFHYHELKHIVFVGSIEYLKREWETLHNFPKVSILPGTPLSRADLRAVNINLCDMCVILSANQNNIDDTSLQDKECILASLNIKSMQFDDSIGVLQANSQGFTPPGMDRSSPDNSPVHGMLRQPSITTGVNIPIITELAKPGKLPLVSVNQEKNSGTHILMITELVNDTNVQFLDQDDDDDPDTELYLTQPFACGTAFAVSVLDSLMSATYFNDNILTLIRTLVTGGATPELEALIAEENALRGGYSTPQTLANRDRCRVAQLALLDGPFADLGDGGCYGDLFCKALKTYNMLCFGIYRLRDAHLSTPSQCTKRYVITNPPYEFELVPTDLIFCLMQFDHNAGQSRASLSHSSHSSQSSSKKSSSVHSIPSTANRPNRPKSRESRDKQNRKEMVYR
Chain of maxi-K potassium channels (Q12791 whole entry): as the sequence (Q12791 whole entry) above
T3 sequence (Q08460 whole entry): as the sequence (Q08460 whole entry) above
T3 sequence (Q8CAE3 whole entry partner): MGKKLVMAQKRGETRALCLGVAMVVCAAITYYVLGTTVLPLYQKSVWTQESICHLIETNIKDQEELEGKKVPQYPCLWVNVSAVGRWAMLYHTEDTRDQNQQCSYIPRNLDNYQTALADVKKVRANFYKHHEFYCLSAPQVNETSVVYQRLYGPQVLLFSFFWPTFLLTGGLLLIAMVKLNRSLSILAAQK

## Cc1ccc(OCC(O)C(C)NC(C)C)c2c1CCC2 (centres unmarked) [ICI 118551, reference compound]
[1]
  isoproterenol dose-response curve: rightward shift in the dose-response curve

## O=c1[nH]c2cc(C(F)(F)F)ccc2n1-c1cc(C(F)(F)F)ccc1O [NS-1619]
[2]
  intracellular Ca2+ concentration: increase intracellular Ca^2+ concentration
[3]
  efficacy in mediating vascular relaxation: diminished
[4]; NS-1619 10 μM extracellular
  peak K+ current: activated peak K^+ current

## Ryanodine
[5]
  reduction of dilation to forskolin: 80%

## C=C[C@]1(C)C=C2CC[C@@]3(O)C(C)(C)CC[C@H](O)[C@]3(C)C2CC1 (some centres unmarked) [Maxikdiol]
[6]
  concentration of significant effect: 3 to 10 µM
  threshold of channel activation: 1 µM
[7]
  membrane permeability: limited

## CC(C)NCC(O)c1ccc(O)c(O)c1 (centres unmarked) [isoproterenol, reference compound]
[8]; OVA-sensitized rings
  maximal relaxation response to isoproterenol: ~25%
[8]; control rings
  maximal relaxation response to isoproterenol: more than 60%
[9]
  increase of outward K+ current: more than 50%

## CC1(C)C[C@@H](O)[C@]2(C)CC[C@]3(C)C(=CC[C@@H]4[C@@]5(C)CC[C@H](O[C@@H]6O[C@H](C(=O)O)[C@@H](O)[C@H](O)[C@H]6O[C@@H]6O[C@H](CO)[C@H](O)[C@H](O)[C@H]6O)[C@](C)(CO)[C@@H]5CC[C@]43C)[C@@H]2C1 [soyasaponin III]
[10]
  BKCa channel activation: activate BKCa channels

## COc1ccc(Cl)cc1[C@]1(F)C(=O)Nc2cc(C(F)(F)F)ccc21 [BMS-204352]
[11]
  effect on current: almost no effect
[12]
  brain infarct size: reduction in brain infarct size

## O=C(Nc1cccc(C(F)(F)F)c1)Nc1cc(Cl)ccc1O [NS1608]
[13]; 50 μM
  effect at higher concentrations: inhibitory effect
[13]
  concentration of maximum activation: 5 to 10 µM
  minimum effective concentration: 0.5 µM

## dehydrosoyasaponin-I [DHS-I]
[10]
  BKCa channel activation: activate BKCa channels
  channel activity with α and β subunits co-expressed: increases channel activity
[7]
  membrane permeability: poor

## CC[N+](CC)(CC)CC [TEA, tetraethylammonium, reference compound]
[4]
  effect on rottlerin induced BKCa activation: reversibly inhibited
[14]
  effect on the rottlerin mediated effect: inhibited

## C[C@@H]1O[C@@H](O[C@H]2[C@H](O[C@H]3[C@H](O[C@H]4CC[C@@]5(C)[C@@H](CC[C@]6(C)[C@@H]5CC=C5[C@@H]7CC(C)(C)C[C@@H](O)[C@]7(C)CC[C@]56C)[C@@]4(C)CO)O[C@H](C(=O)O)[C@@H](O)[C@@H]3O)O[C@H](CO)[C@H](O)[C@@H]2O)[C@H](O)[C@H](O)[C@H]1O [soyasaponin I]
[10]
  BKCa channel activation: activate BKCa channels
